Consider six compounds from paper PMC10011573, “Development of novel broad-spectrum antimicrobial lipopeptides derived from plantaricin NC8 β” (Scientific Reports, 2023).

Non-standard residues stand in square brackets, D forms with d. Residues, ends and D or L forms follow the SMILES beside them. *: point of attachment. Heptanoyl = CCCCCCC(=O)*; Hexanoyl = CCCCCC(=O)*

A short description of data set [1]: Carboxyfluorescein release assay, mammalian liposome model. In kind it is biochemical. The settings on record: 65:5:30 POPC:POPS:Chol. liposomes, 25 µM lipid, 10 mM PBS pH 7.4, 10^–5–10^2 µM peptide, 60 min, fluorescence, Hill fit, n = 3; read-out: EC50 Mammalial (concentration that triggers 50% CF release). As for the experimental part:
(§1) Liposomes were prepared by thin-film hydration method. Lipids stock solutions (10 mg/ml in chloroform, Avanti Polar Lipids, Inc., Alabaster, United States) of the lipids 1-palmitoyl-2-oleoyl-sn-glycero-3-phosphocholine (POPC), 1-palmitoyl-2-oleoyl-sn-glycero-3-phospho-L-serine (POPS), 1-Hexadecanoyl-2-(9Z-Octadecenoyl)-sn-Glycero-3-Phosphoglycerol (POPG) and Cholesterol (Chol) were employed. Bacterial liposomes were prepared with a 75:25 ratio of POPC:POPG and mammalian liposomes were prepared with a 65:5:30 ratio of POPC:POPS:Chol. Lipid solutions were thoroughly homogenised, and the solvent was evaporated with the use of a dry N2 steam to yield a lipid cake. […] The lipid film was subsequently hydrated with a 5(6)-CF solution (50 mM CF, 10 mM PBS, 90 mM NaCl, pH 7.4). Following a 10 min incubation on orbital shaker (50 min^−1), the solution was vortexed for 60 s on medium speed. A mini extruder (Avanti Polar Lipids, Inc., United States) was employed and 21 extrusions were performed through a 0.1 µm filter membrane (Nuclepore track-etched hydrophilic membrane, Cytiva, Whatman, MA, United States), resulting in monodispersed unilamellar liposomes. Directly before use the liposomes were purified from unencapsulated CF by filtration through a gel filtration column (PD Minitrap G-25 column, Cytiva, United States), against PBS buffer (10 mM, pH 7.4).
(§2) Peptide and lipopeptide activity towards liposome models were evaluated using a carboxyfluorescein (CF) release assay. Liposomes were diluted in PBS (10 mM, pH 7.4) to a final lipid concentration of 25 µM and incubated with peptides (10^–5–10^2 µM) in a 96-well plate (n = 3). CF release was monitored using an Infinite M1000 PRO plate reader every 2.5 min for 1 h. Full (100%) CF release was obtained by addition of 1% Triton X-100 solution followed by 10 min incubation. CF release percentage was evaluated according to the formula 100 * (F − F0)/(FT − F0), where F indicates the instantaneous fluorescence, FT the total fluorescence and F0 the background fluorescence prior to peptide addition. Data were fitted to a Hill-1 curve using MATLAB R2019a (The MathWorks Inc., Natick, Massachusetts, United States) and the half maximum effective concentration (EC50) was extracted.

The test system of another data set is human erythrocytes. In words: Hemolytic activity. The settings on record: 15% suspension in PBS, 1 h, 37 °C, absorbance 540 nm, highest tested concentration 100 µM. The format is cell-based. As for the experimental part: The hemolytic activity of the lipopeptides was investigated by collecting blood from healthy volunteers in heparinized vacutainers. Briefly, the blood was centrifuged at 600 × g for 5 min and the erythrocyte pellet was washed three times in PBS. The cells were then suspended in PBS and added to 96-well plates (15% erythrocyte suspension/well), containing the lipopeptides with two-fold serial dilution. The plates were incubated for 1 h at 37 °C followed by centrifugation for 5 min at 900×g and absorbance measurement of the supernatants at 540 nm. Hemolytic activity (%) was calculated by subtracting the negative control from all values and normalization against the positive control (0.5% Triton X-100), that was set to 100%. All experiments, each in duplicate, were repeated three times.

Data set [2] is described as follows: Carboxyfluorescein release assay, bacterial liposome model. As to conditions: 75:25 POPC:POPG liposomes, 25 µM lipid, 10 mM PBS pH 7.4, 10^–5–10^2 µM peptide, 60 min, fluorescence, Hill fit, n = 3; read-out: EC50 Bacterial (concentration that triggers 50% CF release). The format is biochemical. Here is the method:
as §1, §2

Data set [3] has as its system S. aureus (ATCC 29213, MSSA). The settings on record: ATCC 29213, 20 h. As for the experimental part:
(§3) S. aureus (ATCC 29213, MSSA, ATCC, Manassas, VA), E. coli (K-12 MG1655) and clinical isolates of S. aureus, E. coli, E. faecium, K. pneumoniae, A. baumannii, P. aeruginosa and E. cloacae obtained from the Department of Laboratory Medicine at Örebro University Hospital were streaked on Luria–Bertani (LB) agar plates and incubated at 37 °C overnight. Single colonies were inoculated into 5 ml of LB broth and incubated on a shaker (400 rpm) at 37 °C overnight. The bacterial concentrations were determined by viable count and were adjusted to correlate with approximately 10^9 CFU/ml.
(§4) The broth microdilution method was used to determine minimal inhibitory concentration (MIC) and minimal bactericidal concentration (MBC), in accordance with the EUCAST standards for the broth microdilution method. Two-fold serial dilutions of the lipopeptides were used, and the final concentrations ranged from 0.19 to 100 µM. In brief, two-fold serial dilutions of the lipopeptides were performed in a 96-well plate in PBS, with a final volume of 100 µl per well, after which 100 µl of LB-broth media containing approximately 5 × 10^5 CFU/ml of bacteria was added to each well. The plate was then incubated for 20 h in 37 °C on a shaker (400 rpm). The effect of lipopeptide-antibiotic combinations was investigated by performing checkerboard assays. The assays were performed in accordance with the MIC and MBC tests conducted above, but with horizontal and longitudinal two-fold serial dilutions of the tested compounds. […] The fractional inhibitory concentration (FIC) and fractional bactericidal concentration (FBC) were calculated by the equation (MIC or MBC of peptide in combination/MIC or MBC of peptide alone) + (MIC or MBC of antibiotic in combination/MIC or MBC of antibiotic alone). Synergy was defined as FIC/FBC ≤ 0.5, additive when 0.5 < FIC/FBC ≤ 1, indifferent when 1 < FIC/FBC < 2 and antagonistic when FIC/FBC ≥ 2. All experiments were repeated at least three times.

The subject of another data set is E. coli (K-12 MG1655). As to conditions: Table 3; K-12 MG1655; broth microdilution, 50:50 PBS/LB-broth, 200 µL, 20 h, 37 °C. As for the experimental part: as §3, §4
The subject of another data set is S. aureus (ATCC 29213). In kind it is cell-based. As to conditions: Table 6; ATCC 29213; checkerboard assay, 50:50 PBS/LB-broth, 200 µL. As for the experimental part: as §4, with “Two-fold serial dilutions of the lipopeptides were used, and the final concentrations ranged from 0.19 to 100 µM.” left out, “Synergy was defined as FIC/FBC ≤ 0.5, additive when 0.5 < FIC/FBC ≤ 1, indifferent when 1 < FIC/FBC < 2 and antagonistic when FIC/FBC ≥ 2.” left out

Consider `CCCCCCC(=O)N[C@H](CC(C)C)C(=O)NCC(=O)N[C@@H](C(=O)N[C@H](CCCCN)C(=O)N[C@@H](C(=O)N[C@H](CC(C)C)C(=O)N[C@H](Cc1c[nH]c2ccccc12)C(=O)N[C@H](CO)C(=O)N[C@H](C)C(=O)N[C@H](Cc1ccc(O)cc1)C(=O)N[C@H](CCCCN)C(=O)N[C@H](Cc1c[nH]cn1)C(=O)N[C@H](CCCNC(=N)N)C(=O)N[C@H](CCCCN)C(=O)N[C@@H](C(=O)N[C@@H](C(N)=O)[C@H](C)CC)[C@H](C)O)[C@H](C)CC)[C@H](C)CC` [D-6-C7] (Heptanoyl-[dL]G[dI][dK][dI][dL][dW][dS][dA][dY][dK][dH][dR][dK][dT][dI]-NH2), for which the EC50 in data set [1] stood at 1470 nM. The “HC, hemolytic concentration at 5% hemolytic activity” value (“HC … at 5% hemolytic activity” for short) in the data set with human erythrocytes amounted to 65 µM. Further, the EC50 in data set [2] is 290 nM. Moreover, in data set [3], the “S. aureus MBC” value amounted to 3.1 µM and the “S. aureus MIC” value came out at 1.5 µM. For the same compound, in the data set on E. coli (K-12 MG1655), the “E. coli MBC” value is on record as 6.2 µM and the “E. coli MIC” value amounted to 3.1 µM.

`CN(C)[C@@H]1C(O)=C(C(N)=O)C(=O)[C@@]2(O)C(O)=C3C(=O)c4c(O)cccc4[C@@](C)(O)[C@H]3C[C@@H]12` [Tetracycline]: in the data set on S. aureus (ATCC 29213), the “S. aureus MBC, antibiotic alone” value came to 8 µg/mL and the “S. aureus MIC, antibiotic alone” value worked out at 0.5 µg/mL.

Turning to `CN[C@H](CC(C)C)C(=O)N[C@H]1C(=O)N[C@@H](CC(N)=O)C(=O)N[C@H]2C(=O)N[C@H]3C(=O)N[C@H](C(=O)N[C@H](C(=O)O)c4cc(O)cc(O)c4-c4cc3ccc4O)[C@H](O)c3ccc(c(Cl)c3)Oc3cc2cc(c3O[C@@H]2O[C@H](CO)[C@@H](O)[C@H](O)[C@H]2O[C@H]2C[C@](C)(N)[C@H](O)[C@H](C)O2)Oc2ccc(cc2Cl)[C@H]1O` [Vancomycin], in the data set with S. aureus (ATCC 29213), the “S. aureus MBC, antibiotic alone” value was 0.78 µg/mL and the “S. aureus MIC, antibiotic alone” value turned out to be 0.78 µg/mL.

As for `CCCCCC(=O)N[C@@H](CC(C)C)C(=O)NCC(=O)N[C@H](C(=O)N[C@@H](CCCCN)C(=O)N[C@H](C(=O)N[C@@H](CC(C)C)C(=O)N[C@@H](Cc1c[nH]c2ccccc12)C(=O)N[C@@H](CO)C(=O)N[C@@H](C)C(=O)N[C@@H](Cc1ccc(O)cc1)C(=O)N[C@@H](CCCCN)C(=O)N[C@@H](Cc1c[nH]cn1)C(=O)N[C@@H](CCCNC(=N)N)C(=O)N[C@@H](CCCCN)C(=O)N[C@H](C(=O)N[C@H](C(N)=O)[C@@H](C)CC)[C@@H](C)O)[C@@H](C)CC)[C@@H](C)CC` [L-6-C6] (Hexanoyl-LGIKILWSAYKHRKTI-NH2), the EC50 in data set [1] was found to be 3570 nM. In addition, the “HC … at 5% hemolytic activity” value in the data set with human erythrocytes is given as more than 100 µM. The EC50 in data set [2] is 160 nM. Besides, in data set [3], the “S. aureus MBC” value came out at 6.2 µM and the “S. aureus MIC” value is 3.1 µM. In addition, in the data set on E. coli (K-12 MG1655), the “E. coli MBC” value came to 6.2 µM and the “E. coli MIC” value was 6.2 µM.

For `CCCCCC(=O)N[C@@H](CC(C)C)C(=O)NCC(=O)N[C@@H](CC(C)C)C(=O)N[C@@H](CCCCN)C(=O)N[C@@H](CC(C)C)C(=O)N[C@@H](CC(C)C)C(=O)N[C@@H](Cc1c[nH]c2ccccc12)C(=O)N[C@@H](CO)C(=O)N[C@@H](C)C(=O)N[C@@H](Cc1ccc(O)cc1)C(=O)N[C@@H](CCCCN)C(=O)N[C@@H](Cc1c[nH]cn1)C(=O)N[C@@H](CCCNC(=N)N)C(=O)N[C@@H](CCCCN)C(=O)N[C@H](C(=O)N[C@@H](CC(C)C)C(N)=O)[C@@H](C)O` [L-6-C6-Leu] (Hexanoyl-LGLKLLWSAYKHRKTL-NH2), the EC50 in data set [1] came out at 1210 nM. Also, in the data set on human erythrocytes, the “HC … at 5% hemolytic activity” value came out at 60 µM. Further, the EC50 in data set [2] was 130 nM. Further, in data set [3], the “S. aureus MBC” value was 3.1 µM and the “S. aureus MIC” value was determined as 1.5 µM. In the data set with E. coli (K-12 MG1655), the “E. coli MBC” value is reported as 6.2 µM and the “E. coli MIC” value is recorded as 6.2 µM.

In the case of `CCCCCCC(=O)N[C@@H](CC(C)C)C(=O)NCC(=O)N[C@@H](CC(C)C)C(=O)N[C@@H](CCCCN)C(=O)N[C@@H](CC(C)C)C(=O)N[C@@H](CC(C)C)C(=O)N[C@@H](Cc1c[nH]c2ccccc12)C(=O)N[C@@H](CO)C(=O)N[C@@H](C)C(=O)N[C@@H](Cc1ccc(O)cc1)C(=O)N[C@@H](CCCCN)C(=O)N[C@@H](Cc1c[nH]cn1)C(=O)N[C@@H](CCCNC(=N)N)C(=O)N[C@@H](CCCCN)C(=O)N[C@H](C(=O)N[C@@H](CC(C)C)C(N)=O)[C@@H](C)O` [L-6-C7-Leu] (Heptanoyl-LGLKLLWSAYKHRKTL-NH2), in data set [1], the EC50 is 1100 nM. Besides, in the data set on human erythrocytes, the “HC … at 5% hemolytic activity” value worked out at 30 µM. Further, the EC50 in data set [2] worked out at 120 nM. In addition, in data set [3], the “S. aureus MBC” value is on record as 1.5 µM and the “S. aureus MIC” value came out at 1.5 µM. Moreover, in the data set with E. coli (K-12 MG1655), the “E. coli MBC” value amounted to 6.2 µM and the “E. coli MIC” value came to 6.2 µM.
